{"source": "paper PMC3387161", "about": "“Small Molecules Targeted to a Non-Catalytic “RVxF” Binding Site of Protein Phosphatase-1 Inhibit HIV-1” (PLoS ONE, 2012)", "key": {"CEM cells": {"tested_on": "CEM cells", "assay": "Toxicity by propidium iodide fluorescence in CEM-GFP cells", "assay_type": "cell-based", "conditions": "Homo sapiens, CCRF-CEM, 3 µM to 45 µM, 24 h"}, "[1]": {"assay": "Trypan blue exclusion viability assay in CEM cells", "assay_type": "cell-based", "conditions": "human, read-out: Cytotoxicity IC50 in CEM cells by trypan blue exclusion"}, "[2]": {"tested_on": "interaction of Tat with PP1α", "assay_type": "cell-based, human"}, "[3]": {"molecular_target": "PP1 association with Tat, NIPP1 and PNUTS (Homo sapiens, UniProt P62136)", "sequence (P62136 2-330)": "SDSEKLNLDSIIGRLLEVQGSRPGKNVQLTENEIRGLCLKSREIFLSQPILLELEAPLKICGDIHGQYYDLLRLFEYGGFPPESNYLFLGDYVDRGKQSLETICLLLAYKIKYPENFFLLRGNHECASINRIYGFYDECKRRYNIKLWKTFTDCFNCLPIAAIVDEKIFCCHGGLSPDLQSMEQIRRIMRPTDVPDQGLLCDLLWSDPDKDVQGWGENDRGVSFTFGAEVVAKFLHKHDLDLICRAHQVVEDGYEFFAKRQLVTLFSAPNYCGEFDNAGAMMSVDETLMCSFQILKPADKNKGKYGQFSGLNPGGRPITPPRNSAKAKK", "assay_type": "cell-based", "conditions": "Tat-transfected 293T cells, LC-MS peak amplitude"}, "293T cells": {"tested_on": "293T cells", "assay": "Cellular proteome analysis by mass spectrometry in 293T cells", "assay_type": "cell-based, human", "conditions": "10 µM, 18 h, 28 proteins with highest SEQUEST scores", "description": "To determine if 1H4 has a negative effect on protein expression profiles, we analyzed the global cellular proteome by mass spectrometry. Protein expression was analyzed in 293T cells untreated or treated with 1H4 as described in Materials and Methods. We detected expression of 1722 proteins in the untreated sample and 1739 proteins in the 1H4-treated sample (not shown).\nSamples were separated by reversed-phase liquid chromatography (HPLC), using micro-capillary column C18, coupled in line with nanospray and tandem mass spectrometer Thermo LTQ Orbitrap XL. The LC gradient was run for 60 min from 2% to 30% of acetonitrile containing 0.1% formic acid at flow rate 400 nL/min. In single measurement block we performed 1 FT MS scan and 3 data dependent FT MS/MS scans on major multi-charged MS peaks with resolution 30000. The normalized collision-induced dissociation (CID) energy was 35%. The MS/MS spectra were compared against those in the NCBI human protein database. Proteins that were not present in the database, i.e. recombinant Flag-Tat, were manually added to the database. Only peptides having X-correlation (X corr) cutoffs of 1.9 for [M +2H]^2+, 2.3 for [M +3H]^3+ and higher charge state were considered. […]\nAs a negative control untreated cells were used. […] The MS-MS data were analyzed by SEQUEST."}, "CMV promoter": {"tested_on": "CMV promoter", "assay": "Control CMV promoter transcription (CMV-EGFP) in 293T cells", "conditions": "10 µM"}, "HIV-1 NL4-3": {"tested_on": "HIV-1 NL4-3", "assay": "HIV-1 replication in MT4 cells, reverse transcriptase activity", "conditions": "HIV-1 NL4-3, tested at 2, 10, 25 µM, RT activity over 8 days"}}}
{"smiles": "COCCNC(=O)COC(=O)c1c2c(nc3ccccc13)/C(=C/c1ccc(O)cc1)CCC2", "note": "[1H4]", "values": [{"measurement": "IC50", "setting": "CEM cells", "value": "> 25", "unit": "µM"}, {"measurement": "IC50 at 24 h", "setting": "[1]", "value": "> 100", "unit": "µM"}, {"measurement": "Association of Tat with CDK9/cyclin T1", "setting": "[2]", "value": "no effect on the association of Tat with CDK9/cyclin T1"}, {"measurement": "PP1α co-precipitation with Flag-Tat", "setting": "[2]", "value": "reduced the amount of PP1α-EGFP that co-precipitated with Tat"}, {"measurement": "Interaction of PP1 with PNUTS and NIPP1", "setting": "[3]", "value": "without any effect on the interaction of PP1 with PNUTS or NIPP1"}, {"measurement": "Tat association with PP1 (microcystin precipitation)", "setting": "[3]", "value": "Tat association was reduced"}, {"measurement": "Effect on cellular proteome", "setting": "293T cells", "value": "did not significantly change the cellular proteome"}, {"measurement": "Effect on transcription from control CMV promoter", "setting": "CMV promoter", "value": "did not inhibit transcription from a control CMV promoter"}, {"measurement": "Concentration from which HIV-1 replication is inhibited", "setting": "HIV-1 NL4-3", "value": "≥ 10", "unit": "µM"}]}
